System: Human embryonic fibroblasts
Assay: Cell proliferation test with extracts of Elastollan films (Giemsa stain, optical density 620 nm)
Format: cell-based
Settings: extracts obtained in Eagle's medium 37° C. 3 h; cells incubated 72 h; mitomycin C 20 μg/ml for 2 h
Protocol: Elastollan films containing 0.1 and 0.5% by weight shikonin, and Elastollan films without shikonin, were tested.
Human embryonic fibroblasts were employed in these experiments. The cells were cultivated in Eagle's medium with the addition of 10% fetal calf serum and passaged twice a week using a trypsin-EDTA solution. The cells present after the 14th passage were used for the tests.
Mitomycin C dissolved in culture medium in a concentration of 20 μg/ml was used as […] control.
Extracts from Elastollan films without shikonin, Elastollan films with 0.1% by weight and 0.5% by weight shikonin (based on polyurethane), and shikonin alone, were tested.
Extracts were obtained by incubating dishes covered by the polymers to be tested (i.e. Elastollan films without or with shikonin) with Eagle's medium at 37° C. for 3 h. Undissolved solids were removed by filtering. The control with shikonin only (in the culture medium) was cultivated under the same conditions. […]
The stain retained by the cells was eluted with a phosphate buffer/alcohol mixture (1:1) at room temperature for 15 min. The optical density of the resulting solutions was determined by a spectrophotometer with a wavelength of 620 nm.

SMILES: CO[C@@]12[C@H](COC(N)=O)C3=C(C(=O)C(C)=C(N)C3=O)N1C[C@@H]1N[C@@H]12 [mitomycin C, Mitomycin C]
- cell growth of fibroblasts after exposure to the tested extract: no cell growth was observed

Reference: patent US20050208101A1, “Coating composition for an implantable medical device and method for coating such a device” (priority 2002, published 2005)
